Experimental data published in US5780642A, “Imidazole derivatives as therapeutic agents” (KNOLL Aktiengesellschaft, priority 1993, dated 1998).
Structures can show the parent of a compound that is named as a salt.

The compounds below were run on Zymosan Stimulated Macrophages (arachidonic acid release) (assay: Test A: Inhibition of Arachidonic Acid Release from Zymosan Stimulated Macrophages). Conditions: Mus musculus, Macrophage, inhibition of arachidonic acid release, zymosan stimulated mouse peritoneal macrophages; tested at 100, 50, 20, 10, 5 and 1 μM; ≤100 μM considered active; read-out: Test A IC50.
Assay type: cell-based, mouse (female MF1 mice)
Experimental: Test A was carried out in the following way:
Inhibition of Arachidonic Acid Release from Zymosan Stimulated Macrophages
Female MF1 mice (weighing 20 to 25 g) were killed using a rising concentration of CO2. The mice were laid on their backs and the abdomens wiped with 70% alcohol. The skin was pulled back, exposing the peritoneal wall. Medium A (5 ml) (see below) was injected into the peritoneal cavity of each mouse followed by approximately 1 ml of air using a 20 ml syringe and a 21G×40 mm needle in order to form a suspension of macrophage cells. The medium and cells were then removed using a 19G×40 mm needle. The resulting suspension was returned to a sterile beaker kept on ice. The extracts from all the mice were pooled and this pooled cell suspension was counted using a Coulter counter and adjusted to a final cell count of 1-1.3×10^6 cells/ml prior to labelling with [^3 H]-arachidonic acid. Typically five mice provided sufficient cells for each multiwell plate.
Sufficient [^3 H]-arachidonic acid in ethanol to give a final concentration of 1.6 μCi/ml (equivalent to 40 μCi/plate) was blown to dryness under nitrogen. The arachidonic acid was then resuspended in 1 or 2 ml of the cell suspension which was then mixed with the remainder of the cell suspension in a centrifuge bottle. The labelled cell suspension was then plated out into sterile plastic 96 flat-bottomed well plates (250 μl per well) and incubated overnight at 37° C. in a moist atmosphere of 5% CO2, 95% air.
The following day, non-adherent cells were removed by washing 3 times with sterile phosphate buffered saline (PBS). The adherent peritoneal macrophages were then cultured for a further 24 hours in the presence or absence of drugs, in medium B (see below) at 37° in a 5% CO2 atmosphere in order to measure the effects of drugs on the spontaneous release of arachidonic acid in the absence of stimulus. After this incubation, supernatants were removed to give media 1 and stored in sealed multi-well plates at 4° C. prior to scintillation counting. Drugs which potentiated spontaneous release of arachidonic acid (125% of controls) were deemed to be toxic at the concentration at which this phenomenon occurred. The supernatants were replaced by fresh medium C containing fresh drug and a stimulus. Three drugs were tested at six concentrations (100, 50, 20, 10, 5 and 1 μM) in replicates of four on each plate. The other wells contained controls consisting of a positive control (e.g. dexamethasone), medium (B) only and medium C only.
Incubation was then continued for a further 5 hours, whereupon the supernatants were collected to give media 2 and the adherent cells washed with PBS. The cells were then lysed with 100 μl of 0.1% TRITON® X100 in a 0.1% solution of bovine serum albumin in 0.9% saline and mechanically disrupted to give cell lysates. These supernatants (media 2) and cell lysates (Cells) were also stored in sealed multi-well plates at 4° C. prior to scintillation counting. 200 μl aliquots of media, or 100 μl aliquots of cells were counted using 2 ml of OPTIPHASE "HIGH SAFE" (Trademark of LKB) as scintillant.
The percentage of arachidonic acid released was calculated using the mean values for each group of 4 wells in the following equation. [formula]
The value for the arachidonic acid release in the absence of stimulus (spontaneous, cpm of media 2) from cells which had been exposed to neither stimulus nor drug was subtracted from all equivalent values (cpm media 2, stimulated with or without drug) to give the net stimulated release. The percentage inhibition of arachidonic acid release caused by a drug may then be calculated using the following equation. [formula]
Compounds of formula I were tested at six concentrations (100, 50, 20, 10, 5 and 1 μM) and IC50 values calculated. Compounds with IC50 values≤100 μM are considered to be active. Advantageous compounds have an IC50 value<50 μM.
Medium A (for peritoneal lavage) […]
In the case of CCc1ccc(OCCNCCCn2ccnc2)cc1 [Example 5, N-[2-(4-Ethylphenoxy)ethyl]-3-(imidazol-1-yl)propylamine], the IC50 is reported as 17 µM.
Work on Cc1ccc(OCCNCCCn2ccnc2)cc1C [Example 6, N-[2-(3,4-Dimethylphenoxy)ethyl]-3-(imidazol-1-yl)propylamine] yielded an IC50 of 20 µM.
Clc1ccc(OCCCNCCCn2ccnc2)cc1 [Example 9, 3-(4-Chlorophenoxy)-3'-(imidazol-1-yl)dipropylamine] showed an IC50 of 50 µM.
c1ccc(COc2ccc(OCCNCCCn3ccnc3)cc2)cc1 [Example 10, N-[2-(4-Benzyloxyphenoxy)ethyl]-3-(imidazol-1-yl)propylamine dihydrochloride hydrate] gave an IC50 of 36 µM.
Clc1ccc(SCCNCCCn2ccnc2)cc1 [Example 11, N-[2-(4-Chlorophenylthio)ethyl]-3-(imidazol-1-yl)propylamine] gave an IC50 of 37 µM.
For Cc1nccn1CCCNCCCc1ccc(Cl)cc1 [Example 12, 3-(4-Chlorophenyl)-3'-(2-methylimidazol-1-yl)dipropylamine], the IC50 was 7 µM.
For CC(C)(CNCCCn1ccnc1)c1ccc(Cl)cc1 [Example 13, 2-(4-Chlorophenyl)-3'-(imidazol-1-yl)-2-methyldipropylamine dihydrochloride], the IC50 was 9 µM.
With Clc1ccc(CCCNCCCn2ccnc2)cc1 [Example 14, 3-(4-Chlorophenyl)-3'-(imidazol-1-yl)dipropylamine] the IC50 was 6 µM.
With CC(C)(CNCCCn1ccnc1)Sc1ccc(Cl)cc1 [Example 18, 2-(4-Chlorophenylthio)-3'-(imidazol-1-yl)-2-methyldipropylamine dihydrochloride] the IC50 was 20 µM.
For Cc1cc(SCC(C)(C)NCCCn2ccnc2)c(C)cc1Cl [Example 20, N-[2-(4-Chloro-2,5-xylylthio)-1,1-dimethylethyl]-3-(imidazol-1-yl)propylamine dihydrochloride], the IC50 was 4 µM.
CC(C)(NCCCn1cnc(CCN)c1)c1ccc(Cl)cc1 [Example 22, 3-[4-(2-Aminoethyl)imidazol-1-yl]-N-[1-(4-chlorophenyl)-1-methylethyl]propylamine trihydrochloride] showed an IC50 of 26 µM.
CC(C)(NCCCn1ccnc1C(O)c1ccccc1)c1ccc(Cl)cc1 (stereo not drawn) [Example 23, α-(1-{3-[1-(4-Chlorophenyl)-1-methylethylamino]propyl}-imidazol-2-yl)benzyl alcohol] was tested, and the IC50 was 7 µM.
Cc1ccc(S(=O)(=O)Cc2ccc(C(C)(C)NCCCn3ccnc3)cc2)cc1C [Example 24, 3-(imidazol-1-yl)-N-{1-methyl-1-[4-(3,4-xylylsulphonylmethyl)phenyl]ethyl}propylamine dihydrochloride hydrate] gave an IC50 of 22 µM.
Work on CCCCCCS(=O)(=O)Cc1ccc(C(C)(C)NCCCn2ccnc2)cc1 [Example 25, N-(1-[4-(Hexylsulphonylmethyl)phenyl]-1-methylethyl)-3-(imidazol-1-yl)propylamine dihydrochloride] yielded an IC50 of 11 µM.
Compound CCCN(CCC)S(=O)(=O)c1ccc(C(C)(C)NCCCn2ccnc2)cc1 [Example 26, 4-{1-[3-(Imidazol-1-yl)propylamino]-1-methylethyl}-N,N-dipropylbenzenesulphonamide] has an IC50 of 10 µM.
CC(C)(NCCCn1ccnc1)c1ccc(CCOCc2ccccc2)cc1 [Example 27, N-{1-[4-(2-Benzyloxyethyl)phenyl]-1-methylethyl}-3-(imidazol-1-yl)propylamine] showed an IC50 of 70 µM.
Compound CC(C)(NCCCn1ccnc1)c1ccc(C(=O)NC2CCCCC2)cc1 [Example 28, N-Cyclohexyl-4-{1-[3-(imidazol-1-yl)propylamino]-1-methylethyl}benzamide] has an IC50 of 25 µM.
CC(C)(NCCCn1ccnc1)c1ccc(CC(=O)NCc2ccc(Cl)cc2)cc1 [Example 30, N-(4-Chlorobenzyl)-4-{1-[3-(imidazol-1-yl)propylamino]-1-methylethyl}phenylacetamide] was tested, and the IC50 was 20 µM.
For N#Cc1ccc(OCCNCCCn2ccnc2)cc1 [Example 31, 4-{2-[3-(Imidazol-1-yl)propylamino]ethoxy}benzonitrile sesquihydrochloride], the IC50 was 74 µM.
Work on Clc1ccc(C2(CCNCCCn3ccnc3)OCCO2)cc1 [Example 32, N-{2-[2-(4-Chlorophenyl)-1,3-dioxolan-2-yl]ethyl}-3-(imidazol-1-yl)propylamine] yielded an IC50 of 9 µM.
CSc1ccc(OCC(C)(C)NCCCn2ccnc2)cc1 [Example 33, N-[1,1-Dimethyl-2-(4-methylthiophenoxy)ethyl]-3-(imidazol-1-yl)propylamine dihydrochloride hydrate] showed an IC50 of 32 µM.
For CCCC(CCC)(NCCCn1ccnc1)c1ccc(CC(=O)NC)cc1 [Example 34, 4-{1-[3-(Imidazol-1-yl)propylamino]-1-propylbutyl)phenyl-N-methylacetamide], the IC50 was 76 µM.
For CC(C)(COc1ccccc1)NCCCn1ccnc1 [Example 35, 3-(Imidazol-1-yl)-N-(1,1-dimethyl-2-phenoxyethyl) propylamine], the IC50 was 47 µM.
For COc1ccccc1CCC(C)(C)NCCCn1ccnc1 [Example 36, 3'-(Imidazol-1-yl)-3-(2-methoxyphenyl)-1,1-dimethyldipropylamine], the IC50 was 60 µM.
CC(C)(NCCCn1ccnc1)c1ccc(CC(=O)NC2CCCCCC2)cc1 [Example 37, N-Cycloheptyl-4-{1-[3-(imidazol-1-yl)propylamino]-1-methylethyl}phenylacetamide] gave an IC50 of 49 µM.
In the case of CC(C)(COc1ccc(C(F)(F)F)cc1)NCCCn1ccnc1 [Example 39, N-{2-[4-(Trifluoromethyl)phenoxy]-1,1-dimethylethyl}-3-(imidazol-1-yl)propylamine dimaleate], the IC50 is reported as 0.2 µM.
Compound CC(C)(COc1ccc(F)cc1)NCCCn1ccnc1 [Example 40, N-[2-(4-Fluorophenoxy)-1,1-dimethylethyl]-3-(imidazol-1-yl)propylamine dimaleate hemihydrate] has an IC50 of 0.3 µM.
Work on CCC(CC)(CO)c1ccc(C(C)(C)NCCCn2ccnc2)cc1 [Example 41, 2-Ethyl-2(4-{1-[3-(imidazol-1-yl)propylamino]-1-methylethyl}phenyl)butan-1-ol] yielded an IC50 of 10 µM.
In the case of COc1ccc(S(=O)(=O)NCCc2ccc(C(C)(C)NCCCn3ccnc3)cc2)cc1 [Example 42, N-[2-(4-{1-[3-(Imidazol-1-yl)propylamino]-1-methylethyl}phenyl)ethyl]-4-methoxybenzenesulphonamide], the IC50 is reported as 9 µM.
Compound CCC(CC)(NCC(O)Cn1ccnc1)c1ccccc1 (stereo not shown) [Example 44, 1-(1-Ethyl-1-phenylpropylamino)-3-(imidazol-1-yl)-propan-2-ol] has an IC50 of 120 µM.
Compound CCCCCCNC(=O)Cc1ccc(C(C)(C)NCC(O)Cn2ccnc2)cc1 (stereo not shown) [Example 47, N-Hexyl-4-{1-[2-hydroxy-3-(imidazol-1-yl)propylamino]-1-methylethyl}phenylacetamide] has an IC50 of 64 µM.

Same assay, conditions: Mus musculus, Macrophage, read-out: Test A IC50
CC(C)(Cc1ccc(Cl)cc1)NCCCn1ccnc1 [Example 21, N-[2-(4-Chlorophenyl)-1,1-dimethylethyl]-3-(imidazol-1-yl)propylamine dihydrochloride] gave an IC50 of 8 µM.

Same assay, conditions: inhibition of arachidonic acid release, zymosan stimulated mouse peritoneal macrophages; tested at 100, 50, 20, 10, 5 and 1 μM; ≤100 μM considered active; read-out: Test A IC50
CC(C)(NCC(O)Cn1ccnc1)c1ccc(Cl)cc1 (single isomer, unassigned; (+)) [Example 45, (+)-1-[1-(4-Chlorophenyl)-1-methylethylamino]-3-(imidazol-1-yl)propan-2-ol] showed an IC50 of 170 µM.
CC(C)(NCC(O)Cn1ccnc1)c1ccc(Cl)cc1 (single isomer, unassigned; (-)) [Example 46, (-)-1-[1-(4-Chlorophenyl)-1-methylethylamino]-3-(imidazol-1-yl)propan-2-ol] showed an IC50 of 80 µM.
